According to PMC6979384, “Characterization of the plant homeodomain (PHD) reader family for their histone tail interactions” (Epigenetics & Chromatin, 2020):

Experiments:
Test in all cases: Histone peptide microarray
Type in all cases: binding, human
Settings in all cases: sheet "Array Heatmap"
PHF23 = tested on: PHF23
Excerpt: (§1) To more comprehensively define the histone interactions of the 31 PHD readers identified from the domain microarray analyses, we probed each on an alternate microarray platform containing a library of 293 synthetic histone peptides with single or combinatorial PTMs (Additional file 2: Figure S4 and Additional file 3: Table S2).
(§2) The 31 GST-tagged PHD readers identified in the PHD finger domain array were expressed and purified as previously. Histone peptide arrays and peptide pulldown assays were conducted as recently described (specifically, the optimized protocol from Petell et al. for the former).
(§3) Supplementary file 13072_2020_328_MOESM3_ESM.xlsx: Additional file 3: Table S2. […] Excel Tab Peptide List is a compiled list of the entire 293 histone peptide library with amino acid sequence ranges. […] Each number corresponds to the peptide number designated in Peptide List. Excel Tab Average Signals is a compiled set of binding data: chromatin reader at 0.5 μM vs. entire 293 peptide library. Data is presented as the average and standard deviation of 4 replicates. The average signals are colored to indicate signal intensity with green being strong and white being weak/low. […] Key: red= stronger relative binding; blue = weaker relative binding. Excel Tab Array info summary is a table summarizing the domains, sequence coverage, array signal range, and noise for each of the GST-tagged readers assayed on the peptide microarrays.

TRIM66 (PB) = tested on: TRIM66 (PB)
Excerpt: as §1, §2, §3

TAF3 = tested on: TAF3
Excerpt: as §1, §2, §3

BAZ2B = tested on: BAZ2B
Excerpt: as §1, §2, §3

CHD5 (PCC) = tested on: CHD5 (PCC)
Excerpt: as §1, §2, §3

SP140L = tested on: SP140L
Excerpt: as §1, §2, §3

DPF2 (PPC2W2) = tested on: DPF2 (PPC2W2)
Excerpt: as §1, §2, §3

AIRE (PP) = tested on: AIRE (PP)
Excerpt: as §1, §2, §3

KDM4C (TTP) = tested on: KDM4C (TTP)
Excerpt: as §1, §2, §3

ING5 = tested on: ING5
Excerpt: as §1, §2, §3

CHD4 (PPCC) = tested on: CHD4 (PPCC)
Excerpt: as §1, §2, §3

PHF21A = tested on: PHF21A
Excerpt: as §1, §2, §3

ING1 = tested on: ING1
Excerpt: as §1, §2, §3

KDM7A = tested on: KDM7A
Excerpt: as §1, §2, §3

DIDO1 = tested on: DIDO1
Excerpt: as §1, §2, §3

BPTF (PB) = tested on: BPTF (PB)
Excerpt: as §1, §2, §3

MLL5 = tested on: MLL5
Excerpt: as §1, §2, §3

MORC3 (CW) = tested on: MORC3 (CW)
Excerpt: as §1, §2, §3

KDM5B (3) = tested on: KDM5B (3)
Excerpt: as §1, §2, §3

KDM5B (1) = tested on: KDM5B (1)
Excerpt: as §1, §2, §3

KDM5A (3) = tested on: KDM5A (3)
Excerpt: as §1, §2, §3

PHF2 = tested on: PHF2
Excerpt: as §1, §2, §3

ING3 = tested on: ING3
Excerpt: as §1, §2, §3

RAG2 = tested on: RAG2
Excerpt: as §1, §2, §3

PHF8 = tested on: PHF8
Excerpt: as §1, §2, §3

ING4 = tested on: ING4
Excerpt: as §1, §2, §3

PHF13 = tested on: PHF13
Excerpt: as §1, §2, §3

CHD5 (PPCC) = tested on: CHD5 (PPCC)
Excerpt: as §1, §2, §3

ING2 = tested on: ING2
Excerpt: as §1, §2, §3

PHRF1 (RP) = tested on: PHRF1 (RP)
Excerpt: as §1, §2, §3

KDM5A (1) = tested on: KDM5A (1)
Excerpt: as §1, §2, §3

## H2A (1-17): H2A 1-17 (SGRGKQGGKARAKAKTR; UniProt P0C0S8 2-18, looked up, fragment)
PHF23; GST-tagged PHF23, arrays performed twice, total replicate number n = 4
  Array Heatmap signal, PHF23: 0.4782
TRIM66 (PB); GST-tagged TRIM66 (PB), arrays performed twice, total replicate number n = 4
  Array Heatmap signal, TRIM66 (PB): 0.5087
TAF3; GST-tagged TAF3, arrays performed twice, total replicate number n = 4
  Array Heatmap signal, TAF3: 0.223
BAZ2B; GST-tagged BAZ2B, arrays performed twice, total replicate number n = 4
  Array Heatmap signal, BAZ2B: 0.3936
CHD5 (PCC); GST-tagged CHD5 (PCC), arrays performed twice, total replicate number n = 4
  Array Heatmap signal, CHD5 (PCC): 0.7396
SP140L; GST-tagged SP140L, arrays performed twice, total replicate number n = 4
  Array Heatmap signal, SP140L: 0.3296
DPF2 (PPC2W2); GST-tagged DPF2 (PPC2W2), arrays performed twice, total replicate number n = 4
  Array Heatmap signal, DPF2 (PPC2W2): 0.6154
AIRE (PP); GST-tagged AIRE (PP), arrays performed twice, total replicate number n = 4
  Array Heatmap signal, AIRE (PP): 0.3792
KDM4C (TTP); GST-tagged KDM4C (TTP), arrays performed twice, total replicate number n = 4
  Array Heatmap signal, KDM4C (TTP): 0.4226
ING5; GST-tagged ING5, arrays performed twice, total replicate number n = 4
  Array Heatmap signal, ING5: 0.2875
CHD4 (PPCC); GST-tagged CHD4 (PPCC), arrays performed twice, total replicate number n = 4
  Array Heatmap signal, CHD4 (PPCC): 0.5048
PHF21A; GST-tagged PHF21A, arrays performed twice, total replicate number n = 4
  Array Heatmap signal, PHF21A: 0.4214
ING1; GST-tagged ING1, arrays performed twice, total replicate number n = 4
  Array Heatmap signal, ING1: 0.4879
KDM7A; GST-tagged KDM7A, arrays performed twice, total replicate number n = 4
  Array Heatmap signal, KDM7A: 0.3435
DIDO1; GST-tagged DIDO1, arrays performed twice, total replicate number n = 4
  Array Heatmap signal, DIDO1: 0.6067
BPTF (PB); GST-tagged BPTF (PB), arrays performed twice, total replicate number n = 4
  Array Heatmap signal, BPTF (PB): 0.2947
MLL5; GST-tagged MLL5, arrays performed twice, total replicate number n = 4
  Array Heatmap signal, MLL5: 0.5078
MORC3 (CW); GST-tagged MORC3 (CW), arrays performed twice, total replicate number n = 4
  Array Heatmap signal, MORC3 (CW): 0.3444
KDM5B (3); GST-tagged KDM5B (3), arrays performed twice, total replicate number n = 4
  Array Heatmap signal, KDM5B (3): 0.4194
KDM5B (1); GST-tagged KDM5B (1), arrays performed twice, total replicate number n = 4
  Array Heatmap signal, KDM5B (1): 0.663
KDM5A (3); GST-tagged KDM5A (3), arrays performed twice, total replicate number n = 4
  Array Heatmap signal, KDM5A (3): 0.3954
PHF2; GST-tagged PHF2, arrays performed twice, total replicate number n = 4
  Array Heatmap signal, PHF2: 0.4566
ING3; GST-tagged ING3, arrays performed twice, total replicate number n = 4
  Array Heatmap signal, ING3: 0.4033
RAG2; GST-tagged RAG2, arrays performed twice, total replicate number n = 4
  Array Heatmap signal, RAG2: 0.2183
PHF8; GST-tagged PHF8, arrays performed twice, total replicate number n = 4
  Array Heatmap signal, PHF8: 0.3118
ING4; GST-tagged ING4, arrays performed twice, total replicate number n = 4
  Array Heatmap signal, ING4: 0.3938
PHF13; GST-tagged PHF13, arrays performed twice, total replicate number n = 4
  Array Heatmap signal, PHF13: 0.527
CHD5 (PPCC); GST-tagged CHD5 (PPCC), arrays performed twice, total replicate number n = 4
  Array Heatmap signal, CHD5 (PPCC): 0.4702
ING2; GST-tagged ING2, arrays performed twice, total replicate number n = 4
  Array Heatmap signal, ING2: 0.6045
PHRF1 (RP); GST-tagged PHRF1 (RP), arrays performed twice, total replicate number n = 4
  Array Heatmap signal, PHRF1 (RP): 0.4275
KDM5A (1); GST-tagged KDM5A (1), arrays performed twice, total replicate number n = 4
  Array Heatmap signal, KDM5A (1): 0.4209

## H2A (10-25): H2A 10-25 (ARAKAKTRSSRAGLQF; UniProt P0C0S8 11-26, looked up, fragment)
PHF23; PHF23, each array performed twice, total n = 4
  Array Heatmap value (peptide array signal): 0.5294
TRIM66 (PB); TRIM66 (PB), each array performed twice, total n = 4
  Array Heatmap value (peptide array signal): 0.5591
TAF3; TAF3, each array performed twice, total n = 4
  Array Heatmap value (peptide array signal): 0.2598
BAZ2B; BAZ2B, each array performed twice, total n = 4
  Array Heatmap value (peptide array signal): 0.4876
CHD5 (PCC); CHD5 (PCC), each array performed twice, total n = 4
  Array Heatmap value (peptide array signal): 0.8105
SP140L; SP140L, each array performed twice, total n = 4
  Array Heatmap value (peptide array signal): 0.3704
DPF2 (PPC2W2); DPF2 (PPC2W2), each array performed twice, total n = 4
  Array Heatmap value (peptide array signal): 0.6893
AIRE (PP); AIRE (PP), each array performed twice, total n = 4
  Array Heatmap value (peptide array signal): 0.4997
KDM4C (TTP); KDM4C (TTP), each array performed twice, total n = 4
  Array Heatmap value (peptide array signal): 0.5121
ING5; ING5, each array performed twice, total n = 4
  Array Heatmap value (peptide array signal): 0.3701
CHD4 (PPCC); CHD4 (PPCC), each array performed twice, total n = 4
  Array Heatmap value (peptide array signal): 0.556
PHF21A; PHF21A, each array performed twice, total n = 4
  Array Heatmap value (peptide array signal): 0.4834
ING1; ING1, each array performed twice, total n = 4
  Array Heatmap value (peptide array signal): 0.5431
KDM7A; KDM7A, each array performed twice, total n = 4
  Array Heatmap value (peptide array signal): 0.3832
DIDO1; DIDO1, each array performed twice, total n = 4
  Array Heatmap value (peptide array signal): 0.6569
BPTF (PB); BPTF (PB), each array performed twice, total n = 4
  Array Heatmap value (peptide array signal): 0.3546
MLL5; MLL5, each array performed twice, total n = 4
  Array Heatmap value (peptide array signal): 0.5534
MORC3 (CW); MORC3 (CW), each array performed twice, total n = 4
  Array Heatmap value (peptide array signal): 0.3714
KDM5B (3); KDM5B (3), each array performed twice, total n = 4
  Array Heatmap value (peptide array signal): 0.4449
KDM5B (1); KDM5B (1), each array performed twice, total n = 4
  Array Heatmap value (peptide array signal): 0.668
KDM5A (3); KDM5A (3), each array performed twice, total n = 4
  Array Heatmap value (peptide array signal): 0.4414
PHF2; PHF2, each array performed twice, total n = 4
  Array Heatmap value (peptide array signal): 0.4378
ING3; ING3, each array performed twice, total n = 4
  Array Heatmap value (peptide array signal): 0.4796
RAG2; RAG2, each array performed twice, total n = 4
  Array Heatmap value (peptide array signal): 0.2471
PHF8; PHF8, each array performed twice, total n = 4
  Array Heatmap value (peptide array signal): 0.3624
ING4; ING4, each array performed twice, total n = 4
  Array Heatmap value (peptide array signal): 0.4661
PHF13; PHF13, each array performed twice, total n = 4
  Array Heatmap value (peptide array signal): 0.6145
CHD5 (PPCC); CHD5 (PPCC), each array performed twice, total n = 4
  Array Heatmap value (peptide array signal): 0.5571
ING2; ING2, each array performed twice, total n = 4
  Array Heatmap value (peptide array signal): 0.647
PHRF1 (RP); PHRF1 (RP), each array performed twice, total n = 4
  Array Heatmap value (peptide array signal): 0.4431
KDM5A (1); KDM5A (1), each array performed twice, total n = 4
  Array Heatmap value (peptide array signal): 0.4831
